Literature values as cited in patent publication US6696071B2, “Pre-coital and post-coital rinse with anti-viral and skin-protective zinc salts” (priority 2001, dated 2004).

Conditions: ionic dissociation in water

SMILES: O=C[O-].O=C[O-].[Zn+2] [Zinc formate]
- Reported pK values, pK1 (pK1): 0.6
- Reported pK values, pK2 (pK2): 0.95
